Measured values: patent publication US20240174618A1, “SUBSTITUTED (2-HETEROARYLOXYPHENYL)SULFONATES, SALTS THEREOF AND THEIR USE AS HERBICIDAL AGENTS” (Bayer Aktiengesellschaft, priority 2021, published 2024)

What was measured:
Type in all cases: in vivo
[1] = system: Echinochloa crus-galli (ECHCG); experiment: A. Herbicidal pre-emergence efficacy, ECHCG; details: scored visually after about 3 weeks vs untreated controls
In short: (§1)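 Applied before emergence onto covering soil at rates of 1280 g/ha or less, using 600 L/ha spray water with 0.5% additive. Scoring: visual % efficacy after ~3 weeks, greenhouse.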

Kochia scoparia (KCHSC) = experiment: A. Herbicidal pre-emergence efficacy, KCHSC
In short: as §1

[2] = system: Matricaria inodora (MATIN); experiment: A. Herbicidal pre-emergence efficacy, MATIN
In short: as §1

Setaria viridis (SETVI) = experiment: A. Herbicidal pre-emergence efficacy, SETVI
In short: as §1

Veronica persica (VERPE) = experiment: A. Herbicidal pre-emergence efficacy, VERPE; details: for Pre-emergence efficacy against VERPE: dosage 80 g/ha
In short: as §1

[3] = system: Echinochloa crus-galli (ECHCG); experiment: B. Herbicidal post-emergence efficacy, ECHCG; details: rated visually after about 3 weeks
In short: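 First, seeds were sown in sandy loam and grown 2 to 3 weeks under controlled greenhouse conditions. Next, foliage at the one-leaf stage received the formulated compound in water with 0.5% additive (600 L/ha, 1280 g/ha or less). Finally, damage was rated visually after about 3 weeks against untreated plants.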

[4] = pre-emergence, dosage 1280 g/ha
[5] = 80 g/ha, scored visually after about 3 weeks vs untreated controls
[6] = 320 g/ha, scored visually after about 3 weeks vs untreated controls

SMILES	Pre-emergence efficacy against ECHCG ([1]; 80 g/ha)	Pre-emergence efficacy against ECHCG ([1]; 320 g/ha)	Pre-emergence efficacy against ECHCG ([1]; 1280 g/ha)	Pre-emergence efficacy against KCHSC (Kochia scoparia (KCHSC); pre-emergence, dosage 320 g/ha)	Pre-emergence efficacy against KCHSC (Kochia scoparia (KCHSC); [4])	Pre-emergence efficacy against MATIN [2, 4]	Pre-emergence efficacy against SETVI (Setaria viridis (SETVI); dosage 80 g/ha)	Pre-emergence efficacy against SETVI (Setaria viridis (SETVI); dosage 320 g/ha)	Pre-emergence efficacy against SETVI (Setaria viridis (SETVI); dosage 1280 g/ha)	Pre-emergence efficacy against VERPE in % (Veronica persica (VERPE); 320 g/ha)	Pre-emergence efficacy against VERPE in % (Veronica persica (VERPE); 1280 g/ha)	Post-emergence efficacy against ECHCG in % ([3]; 320 g/ha)	Post-emergence efficacy against ECHCG in % ([3]; 1280 g/ha)	Pre-emergence efficacy against KCHSC (Kochia scoparia (KCHSC); [5])	Pre-emergence efficacy against MATIN [2, 6]	Pre-emergence efficacy against VERPE (Veronica persica (VERPE))	Post-emergence efficacy against ECHCG in % ([3]; 80 g/ha)
Cc1cccc(Oc2ncc(Cl)cn2)c1OS(=O)(=O)CCCC(F)(F)F [Example I-28, 2-[(5-Chloropyrimidin-2-yl)oxy]-6-methylphenyl 4,4,4-trifluorobutane-1-sulfonate]	90%	100%	100%	90%	90%	100%	100%	100%	100%	100%	100%	90%	100%	–	–	–	–
Cc1cccc(Oc2ncc(F)cn2)c1OS(=O)(=O)CCC(F)(F)F [Example I-45]	90%	100%	100%	100%	100%	90%	90%	100%	100%	100%	100%	100%	100%	–	–	–	–
O=S(=O)(CCC(F)(F)F)Oc1c(Br)cccc1Oc1ncc(F)cn1 [Example I-43]	–	100%	100%	–	100%	90%	–	100%	100%	100%	100%	90%	90%	–	–	–	–
O=S(=O)(CCCC(F)(F)F)Oc1c(Br)cccc1Oc1ncc(Cl)cn1 [Example I-30]	–	100%	100%	100%	100%	100%	90%	100%	100%	100%	100%	90%	90%	–	–	–	–
O=S(=O)(CCCC(F)(F)F)Oc1c(F)cccc1Oc1ncc(Cl)cn1 [Example I-49]	90%	90%	90%	100%	100%	100%	90%	100%	100%	100%	100%	90%	90%	100%	100%	90%	90%
O=S(=O)(CC1CC1(Cl)Cl)Oc1c(F)cccc1Oc1ncc(Cl)cn1 (centres unmarked) [Example I-57]	–	–	100%	100%	100%	100%	90%	100%	100%	90%	100%	90%	90%	–	90%	–	–
C=CCCS(=O)(=O)Oc1c(F)cccc1Oc1ncc(Cl)cn1 [Example I-50]	–	90%	100%	100%	100%	90%	90%	90%	100%	100%	100%	–	90%	90%	–	90%	–
Cc1cccc(Oc2ncc(Cl)cn2)c1OS(=O)(=O)CCC(F)(F)F [Example I-29]	–	100%	100%	90%	100%	90%	–	100%	100%	100%	100%	90%	100%	–	–	100%	–
O=S(=O)(CCC(F)(F)F)Oc1c(F)cccc1Oc1ncc(F)cn1 [Example I-47]	100%	100%	100%	100%	100%	100%	100%	100%	100%	100%	100%	100%	100%	100%	100%	90%	90%
COCCS(=O)(=O)Oc1c(F)cccc1Oc1ncc(Cl)cn1 [Example I-52]	–	90%	90%	90%	100%	90%	–	100%	100%	100%	100%	–	90%	–	–	–	–
C=CCS(=O)(=O)Oc1ccccc1Oc1ncc(Cl)cn1 [Example I-36]	–	–	100%	90%	100%	–	–	–	100%	–	100%	–	–	–	–	–	–
